From patent US20240217990A1 (Gilead Sciences, Inc., priority 2021, published 2024)

Key:
TLR8 = target: T1, TLR8 (Homo sapiens, UniProt Q9NR97); assay: TLR8 human PBMC cell-based assay (antagonist, Compound A stimulated cytokine release); details: human PBMCs; TLR8 agonist Compound A 800 nM, 6 hours; cytokines (TNFa and IL 12p40) in supernatant; read-out: TLR-8 EC50
T1 construct: Human peripheral blood mononuclear cells (PBMCs) consist of lymphocytes, monocytes and dendritic cells that express TLR7, TLR8 and TLR9; endogenous in cells; host or cells: cryopreserved human PBMCs from healthy donors
T1 sequence (Q9NR97 27-1041): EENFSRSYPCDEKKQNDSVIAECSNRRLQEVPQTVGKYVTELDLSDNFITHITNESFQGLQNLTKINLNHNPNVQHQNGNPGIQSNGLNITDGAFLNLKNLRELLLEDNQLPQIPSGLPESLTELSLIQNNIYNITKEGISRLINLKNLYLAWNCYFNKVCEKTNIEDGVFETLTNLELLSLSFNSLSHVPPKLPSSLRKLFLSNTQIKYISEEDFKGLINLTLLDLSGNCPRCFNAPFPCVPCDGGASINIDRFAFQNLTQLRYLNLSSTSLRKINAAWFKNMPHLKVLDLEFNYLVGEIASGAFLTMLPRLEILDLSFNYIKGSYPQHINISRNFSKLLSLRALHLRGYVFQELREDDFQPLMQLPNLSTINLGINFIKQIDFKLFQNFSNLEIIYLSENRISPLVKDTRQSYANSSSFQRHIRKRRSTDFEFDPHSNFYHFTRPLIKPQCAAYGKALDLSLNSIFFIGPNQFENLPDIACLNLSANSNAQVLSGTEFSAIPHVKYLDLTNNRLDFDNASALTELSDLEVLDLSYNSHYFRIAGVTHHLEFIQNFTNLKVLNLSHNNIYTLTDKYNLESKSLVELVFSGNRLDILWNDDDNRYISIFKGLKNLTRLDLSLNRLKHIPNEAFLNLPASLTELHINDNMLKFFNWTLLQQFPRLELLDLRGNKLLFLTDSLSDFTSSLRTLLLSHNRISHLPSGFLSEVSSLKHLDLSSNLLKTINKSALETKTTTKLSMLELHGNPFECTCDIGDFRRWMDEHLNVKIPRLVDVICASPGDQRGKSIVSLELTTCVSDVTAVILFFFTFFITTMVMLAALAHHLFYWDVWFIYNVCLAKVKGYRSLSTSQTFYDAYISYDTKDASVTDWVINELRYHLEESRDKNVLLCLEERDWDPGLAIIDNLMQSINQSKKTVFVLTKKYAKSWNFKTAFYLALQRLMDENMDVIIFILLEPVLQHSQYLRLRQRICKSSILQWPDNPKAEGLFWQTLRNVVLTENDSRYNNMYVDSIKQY
How it was run: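 Cryopreserved donor PBMCs (100,000/well, RPMI + 10% FBS) were preincubated 1 h with antagonist (10-point dose response, quadruplicate), then stimulated with Compound A (800 nM final) for 6 h at 37 °C. TNFa and IL-12p40 in supernatants were measured by electrochemiluminescence; sigmoidal fits gave EC50.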

TLR7 = target: T2, TLR7 (Homo sapiens, UniProt Q9NYK1); assay: TLR7 human PBMC cell-based assay (antagonist, GS-986 stimulated cytokine release); details: human PBMCs; TLR7 agonist GS-986 400 nM, 6 hours; cytokines (IL-6 and IFNα) in supernatant; read-out: TLR-7 EC50
T2 construct: Human peripheral blood mononuclear cells (PBMCs) consist of lymphocytes, monocytes and dendritic cells that express TLR7, TLR8 and TLR9; endogenous in cells; host or cells: cryopreserved human PBMCs from healthy donors
T2 sequence (Q9NYK1 27-1049): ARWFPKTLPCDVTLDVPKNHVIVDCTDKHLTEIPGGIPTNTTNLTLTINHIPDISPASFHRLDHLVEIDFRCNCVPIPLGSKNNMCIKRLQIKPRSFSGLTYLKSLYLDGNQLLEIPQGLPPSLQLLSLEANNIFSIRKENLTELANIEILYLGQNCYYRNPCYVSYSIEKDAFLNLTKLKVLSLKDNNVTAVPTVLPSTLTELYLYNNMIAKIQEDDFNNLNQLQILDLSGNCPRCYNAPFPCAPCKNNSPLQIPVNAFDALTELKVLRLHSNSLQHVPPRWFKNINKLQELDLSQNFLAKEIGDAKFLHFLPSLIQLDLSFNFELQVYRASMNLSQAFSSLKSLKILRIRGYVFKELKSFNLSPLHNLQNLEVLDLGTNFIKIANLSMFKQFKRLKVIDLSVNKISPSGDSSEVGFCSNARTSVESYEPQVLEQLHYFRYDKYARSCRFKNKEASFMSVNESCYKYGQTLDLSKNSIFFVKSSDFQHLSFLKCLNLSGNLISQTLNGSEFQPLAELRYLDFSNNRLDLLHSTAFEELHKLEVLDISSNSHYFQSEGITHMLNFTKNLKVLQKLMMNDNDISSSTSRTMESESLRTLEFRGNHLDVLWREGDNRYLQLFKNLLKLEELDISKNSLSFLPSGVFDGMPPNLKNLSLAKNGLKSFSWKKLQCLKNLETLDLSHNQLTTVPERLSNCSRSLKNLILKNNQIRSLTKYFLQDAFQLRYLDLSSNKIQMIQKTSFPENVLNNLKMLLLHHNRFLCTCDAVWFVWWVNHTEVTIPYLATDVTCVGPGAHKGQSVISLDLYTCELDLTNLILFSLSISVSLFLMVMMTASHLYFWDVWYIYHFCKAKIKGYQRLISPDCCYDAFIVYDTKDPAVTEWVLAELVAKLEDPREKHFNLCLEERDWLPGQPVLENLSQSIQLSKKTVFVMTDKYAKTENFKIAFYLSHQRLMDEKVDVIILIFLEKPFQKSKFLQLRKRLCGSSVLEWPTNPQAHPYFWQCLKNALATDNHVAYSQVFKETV
How it was run: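 EC50 derived by sigmoidal fitting of IL-6 and IFNα levels, quantified by electrochemiluminescence in supernatants of human PBMCs given 400 nM GS-986 for 6 h. Cells (100,000/well in RPMI-1640, 10% FBS) had received test antagonist 1 h beforehand, 10 doses in quadruplicate, at 37 °C.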

Row | EC50 (TLR8) | EC50 (TLR7) | Compound
1 | 131 nM | 6.3 nM | CC(C)c1c(-c2ccc3nccn3c2)[nH]c2cc(C(=O)N3CCNCC3)sc12 [Example 67]
2 | > 1000 nM | 822 nM | CC(C)c1c(-c2ccn3ccnc3c2)[nH]c2cc(C(=O)N3CCNCC3)sc12 [Example 68]
3 | 9.2 nM | 24.4 nM | Cc1cc(-c2[nH]c3cc(C(=O)N4CCN(CCO)CC4)sc3c2C(C)C)cn2ncnc12 [Example 69]
4 | 9.3 nM | 0.2 nM | Cc1cc(-c2[nH]c3cc(C4=NCC5(CCNCC5)O4)sc3c2C(C)C)cn2ncnc12 [Example 70]
5 | 23.6 nM | 22.3 nM | Cc1cc(-c2[nH]c3cc(-c4nnc(C5CCC(N)CC5)o4)sc3c2C(C)C)cc(C)n1 (stereo not shown) [Example 71]
6 | 1.1 nM | 1.9 nM | CN[C@@H]1CCN(C(=O)c2cc3[nH]c(-c4cc(C)c5ncnn5c4)c(C(C)C)c3s2)C1 [Example 72]
7 | 1.7 nM | 4.9 nM | CN[C@H]1CCN(C(=O)c2cc3[nH]c(-c4cc(C)c5ncnn5c4)c(C(C)C)c3s2)C1 [Example 73]
8 | 10.5 nM | 10.5 nM | Cc1cc(-c2[nH]c3cc(C(=O)N4C[C@@H]5[C@@H](N)[C@@H]5C4)sc3c2C(C)C)cn2ncnc12 [Example 74]
9 | 14 nM | 1.6 nM | Cc1cc(-c2[nH]c3cc(C(=O)N(C)[C@H]4[C@@H]5CNC[C@@H]54)sc3c2C(C)C)cn2ncnc12 [Example 75]
10 | 6.5 nM | 0.6 nM | Cc1cc(-c2[nH]c3cc(C(=O)N(C)[C@@H]4CCNC[C@H]4F)sc3c2C(C)C)cn2ncnc12 [Example 76]
11 | 40.3 nM | 9 nM | Cc1cc(-c2[nH]c3cc(C(=O)N4C[C@@H](N)C[C@@H](C(F)(F)F)C4)sc3c2C(C)C)cn2ncnc12 [Example 77]
12 | 8.6 nM | 0.4 nM | Cc1cc(-c2[nH]c3cc(C(=O)N(C)[C@H]4CCNC[C@@H]4F)sc3c2C(C)C)cn2ncnc12 [Example 78]
13 | 9.1 nM | 0.3 nM | Cc1cc(-c2[nH]c3cc(C(=O)N(C)[C@@H]4CCNC[C@@H]4F)sc3c2C(C)C)cn2ncnc12 [Example 79]
14 | 9.5 nM | 0.5 nM | Cc1cc(-c2[nH]c3cc(C(=O)N(C)[C@H]4CCNC[C@H]4F)sc3c2C(C)C)cn2ncnc12 [Example 80]
15 | 91 nM | 10.3 nM | Cc1cc(-c2[nH]c3cc(C(=O)N(C)[C@H]4CCNCC4(F)F)sc3c2C(C)C)cn2ncnc12 [Example 81]
16 | 17.7 nM | 17.8 nM | Cc1cc(-c2[nH]c3cc(C(=O)N(C)[C@@H]4CCN(C5CCC5)C[C@@H]4F)sc3c2C(C)C)cn2ncnc12 [Example 83]
17 | 25.1 nM | 1.1 nM | Cc1cc(-c2[nH]c3cc(C(=O)N(C4CCC4)C4CCNCC4)sc3c2C(C)C)cn2ncnc12 [Example 84]
18 | 0.6 nM | 1.3 nM | Cc1cc(-c2[nH]c3cc(C(=O)N4CCNC(C)(C)C4)sc3c2C(C)C)cn2ncnc12 [Example 85]
19 | 0.3 nM | 1 nM | Cc1c(-c2[nH]c3cc(C(=O)N4CCNC(C)(C)C4)sc3c2C(C)C)cn2ncnc2c1C [Example 86]

Row | EC50 (TLR8) | EC50 (TLR7) | Compound
20 | 13 nM | 0.5 nM | Cc1cc(-c2[nH]c3cc(C(=O)N4CCC[C@H](N)[C@@H]4C)sc3c2C(C)C)cn2ncnc12 [Example 87]
21 | 4.6 nM | 0.5 nM | Cc1cc(-c2[nH]c3cc(C(=O)N4CCC5CNCCC54)sc3c2C(C)C)cn2ncnc12 (stereo not shown) [Example 88]
22 | 26.2 nM | 2.5 nM | Cc1cc(-c2[nH]c3cc(C(=O)N4CCC5CCNCC54)sc3c2C(C)C)cn2ncnc12 (stereo not shown) [Example 89]
23 | 9.9 nM | 1 nM | Cc1cc(-c2[nH]c3cc(C(=O)N4CCC5CCNC5C4)sc3c2C(C)C)cn2ncnc12 (stereo not shown) [Example 90]
24 | 12.3 nM | 3 nM | Cc1cc(-c2[nH]c3cc(C(=O)N4C[C@H](N)[C@@H]5CC[C@H]4C5)sc3c2C(C)C)cn2ncnc12 [Example 91]
25 | 23.1 nM | 0.2 nM | Cc1cc(-c2[nH]c3cc(C(=O)N(C)C4CCNCC4(C)C)sc3c2C(C)C)cn2ncnc12 (stereo not shown) [Example 92]
26 | 19.8 nM | 0.6 nM | Cc1cc(-c2[nH]c3cc(C(=O)N4CCC[C@@H]5NCC[C@@H]54)sc3c2C(C)C)cn2ncnc12 [Example 93]
27 | 4.7 nM | 1 nM | Cc1cc(-c2[nH]c3cc(C(=O)N(C)CCCN(C)C)sc3c2C(C)C)cn2ncnc12 [Example 94]
28 | 35 nM | 45.2 nM | Cc1cc(-c2[nH]c3cc(C(=O)N(C)CCN4CCOCC4)sc3c2C(C)C)cn2ncnc12 [Example 95]
29 | 25.8 nM | 0.3 nM | Cc1cc(-c2[nH]c3cc(C(=O)N4C[C@@H](N)CC[C@H]4C)sc3c2C(C)C)cn2ncnc12 [Example 96]
30 | 32.6 nM | 12.9 nM | Cc1cc(-c2[nH]c3cc(C(=O)N4CCC[C@H]4CN4CCCC4)sc3c2C(C)C)cn2ncnc12 [Example 97]
31 | 17.5 nM | 14.3 nM | Cc1cc(-c2[nH]c3cc(C(=O)N(CCN(C)C)C4CCCC4)sc3c2C(C)C)cn2ncnc12 [Example 98]
32 | 11.6 nM | 4.1 nM | Cc1cc(-c2[nH]c3cc(C(=O)N(C)CCN4CCCC4)sc3c2C(C)C)cn2ncnc12 [Example 99]
33 | 22.5 nM | 9.6 nM | Cc1cc(-c2[nH]c3cc(C(=O)N(C)CCN(C)C4CC4)sc3c2C(C)C)cn2ncnc12 [Example 100]
34 | 78.8 nM | 2.2 nM | Cc1cc(-c2[nH]c3cc(C(=O)N4C[C@@H](N)CC[C@@H]4C)sc3c2C(C)C)cn2ncnc12 [Example 101]
35 | 21.3 nM | 11.3 nM | Cc1cc(-c2[nH]c3cc(C(=O)N4CCC[C@H]4CN(C)C)sc3c2C(C)C)cn2ncnc12 [Example 103]
36 | 10.6 nM | 7.8 nM | Cc1cc(-c2[nH]c3cc(C(=O)N4CCC[C@@H]4CN(C)C)sc3c2C(C)C)cn2ncnc12 [Example 104]
37 | 16.3 nM | 4.6 nM | Cc1cc(-c2[nH]c3cc(C(=O)N4CC[C@H](C)[C@H](N)C4)sc3c2C(C)C)cn2ncnc12 [Example 105]
38 | 12.8 nM | 3.9 nM | Cc1cc(-c2[nH]c3cc(C(=O)N4CCCCC4CN(C)C)sc3c2C(C)C)cn2ncnc12 (stereo not shown) [Example 107]
